# From US20230114728A1 (Venatorx Pharmaceuticals, Inc., priority 2019, published 2023)
# Legend:
# A. baumannii ATCC 19606 = test: Broth microdilution MIC in CAMHB; type: cell-based; conditions: Acinetobacter baumannii, ATCC19606; MHB; read-out: Minimum Inhibitory Concentration, A. baumannii ATCC 19606
# In short: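 CLSI microdilution; CAMHB; inoculum 2-8×10^5 CFU/mL from 3-5 h 37° C culture; 2-fold compound series; 16-20 h, 37° C; MIC = lowest well without visible growth.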
# E. coli 901C = test: Broth microdilution MIC in CAMHB; type: cell-based; conditions: Escherichia coli; E. coli 901C (hyper-permeable); MHB; read-out: Minimum Inhibitory Concentration, E. coli 901C
# In short: (§1)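 Per CLSI broth microdilution, colonies were grown 3-5 h at 37° C in cation-adjusted Mueller Hinton broth, then diluted to a starting inoculum of 2-8×10^5 CFU/mL against 2-fold serial compound dilutions. Plates were incubated 16-20 h at 37° C, and MIC was read visually as the lowest concentration with no growth.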
# [1] = system: K. pneumoniae UMM producing SHV-5 and KPC-2; test: Broth microdilution MIC in CAMHB; type: cell-based; conditions: Klebsiella pneumoniae, read-out: Minimum Inhibitory Concentration, K. pneumoniae UMM
# In short: as §1
# [2] = system: P. aeruginosa (ΔmexAB-oprM); test: Broth microdilution MIC in CAMHB; type: cell-based; conditions: Pseudomonas aeruginosa, read-out: Minimum Inhibitory Concentration, P. aeruginosa ΔmexAB-OprM
# In short: as §1
# E. coli AG100 = test: Broth microdilution MIC in CAMHB; type: cell-based; conditions: Escherichia coli; E. coli AG100 (wild-type parent); MHB; read-out: Minimum Inhibitory Concentration, E. coli AG100
# In short: as §1
# P. aeruginosa ATCC 27853 = test: Broth microdilution MIC in CAMHB; type: cell-based; conditions: Pseudomonas aeruginosa, ATCC27853; MHB; read-out: Minimum Inhibitory Concentration, P. aeruginosa ATCC 27853
# In short: as §1
# [3] = system: K. pneumoniae 848844 producing SHV-11 and KPC-2; test: Broth microdilution MIC in CAMHB; type: cell-based; conditions: Klebsiella pneumoniae, read-out: Minimum Inhibitory Concentration, K. pneumoniae 848844
# In short: as §1
# P. aeruginosa PBP3 = target: T1, P. aeruginosa PBP3 (Pseudomonas aeruginosa, UniProt G3XD46); test: Bocillin-FL fluorescence polarization competition binding assay, P. aeruginosa PBP3; conditions: fluorescence polarization competition binding assay using Bocillin-FL
# T1 construct: made in house
# T1 sequence (G3XD46 whole entry): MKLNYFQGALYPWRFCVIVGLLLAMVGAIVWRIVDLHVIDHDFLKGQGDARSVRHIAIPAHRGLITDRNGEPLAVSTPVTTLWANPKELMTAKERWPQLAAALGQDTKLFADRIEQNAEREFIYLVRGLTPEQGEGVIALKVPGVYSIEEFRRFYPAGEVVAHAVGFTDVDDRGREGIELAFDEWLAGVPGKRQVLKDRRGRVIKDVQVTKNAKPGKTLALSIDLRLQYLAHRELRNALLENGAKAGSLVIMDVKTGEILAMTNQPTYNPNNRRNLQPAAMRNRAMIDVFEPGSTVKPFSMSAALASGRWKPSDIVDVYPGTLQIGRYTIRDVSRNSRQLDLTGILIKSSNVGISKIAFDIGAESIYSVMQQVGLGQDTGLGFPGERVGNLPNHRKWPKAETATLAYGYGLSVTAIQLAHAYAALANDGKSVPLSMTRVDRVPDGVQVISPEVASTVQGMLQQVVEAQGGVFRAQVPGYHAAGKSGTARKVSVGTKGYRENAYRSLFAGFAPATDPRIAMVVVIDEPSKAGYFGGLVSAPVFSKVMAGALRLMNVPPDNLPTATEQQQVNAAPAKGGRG
# In short: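 Binding of boronic acid inhibitors to purified Pseudomonas aeruginosa (PA01) PBP3 was measured by fluorescence polarization competition with Bocillin-FL, a fluorescent penicillin V. Reactions of 80 μl contained 0.75 μM PBP3 and 0.1 μM Bocillin-FL in 50 mM Hepes (pH 8.0), 300 mM NaCl and 5% (v/v) glycerol, in black 384-well plates. FP (Excitation 490 nm, Emission 520 nm) was read for up to 60 minutes. EC50 is the concentration that halves PBP-bound Bocillin-FL.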
# E. coli K12 PBP3 = target: T2, E. coli K12 PBP3 (Escherichia coli, UniProt P0AD68); test: biochemical; type: binding
# T2 construct: made in house
# T2 sequence (P0AD68 1-577): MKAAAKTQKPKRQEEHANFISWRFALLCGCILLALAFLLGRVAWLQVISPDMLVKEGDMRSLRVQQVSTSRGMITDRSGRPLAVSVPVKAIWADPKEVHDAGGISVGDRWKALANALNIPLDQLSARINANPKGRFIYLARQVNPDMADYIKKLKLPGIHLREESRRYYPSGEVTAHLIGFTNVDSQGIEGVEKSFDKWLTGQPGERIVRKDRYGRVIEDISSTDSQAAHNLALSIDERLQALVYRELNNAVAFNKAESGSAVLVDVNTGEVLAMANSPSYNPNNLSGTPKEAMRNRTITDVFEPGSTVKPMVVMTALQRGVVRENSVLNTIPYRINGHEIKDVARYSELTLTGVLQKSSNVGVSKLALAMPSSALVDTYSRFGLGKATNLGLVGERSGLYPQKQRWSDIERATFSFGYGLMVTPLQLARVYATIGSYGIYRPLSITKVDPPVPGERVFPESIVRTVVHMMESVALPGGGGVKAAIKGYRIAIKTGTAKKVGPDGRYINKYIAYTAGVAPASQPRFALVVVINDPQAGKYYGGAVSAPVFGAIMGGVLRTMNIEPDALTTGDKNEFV
# In short: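 Fluorescence polarization (ex 490/em 520 nm) competition of inhibitors against Bocillin-FL at 0.1 μM, read up to 60 min. Final PBP levels: E. coli PBP3 1.5 μM; A. baumannii PBP2 2.5 μM, PBP3 0.2 μM in Tris pH 8.0/NaCl/glycerol/Tween 20; N. gonorrhoeae PBP2 […] in Hepes pH 8.0/NaCl/glycerol. EC50 = concentration halving PBP-bound Bocillin-FL.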
SMILES,MIC (A. baumannii ATCC 19606),MIC (E. coli 901C),MIC [1],MIC [2],MIC (E. coli AG100),MIC (P. aeruginosa ATCC 27853),MIC [3],P. aeruginosa PBP3 Potency (P. aeruginosa PBP3),EC50 (E. coli K12 PBP3)
CCN1CCN(C(=O)NC(C(=O)N[C@H]2Cc3cccc(C(=O)O)c3OB2O)c2ccc(O)c(F)c2F)C(=O)C1=O (stereo partly drawn) [Example 173],> 128 µg/mL,< 0.25 µg/mL,32 to 64 µg/mL,2 to 4 µg/mL,8 to 16 µg/mL,> 128 µg/mL,> 128 µg/mL,D (D represents a potency <10 μM),< 30 µM
"CCN1CCN(C(=O)NC(C(=O)N[C@H]2Cc3cccc(C(=O)O)c3OB2O)c2cc(F)c(O)c(Cl)c2)C(=O)C1=O (stereo partly drawn) [Example 164, (3R)-3-(2-(3-chloro-5-fluoro-4-hydroxyphenyl)-2-(4-ethyl-2,3-dioxopiperazine-1-carboxamido)acetamido)-2-hydroxy-3,4-dihydro-2H-benzo[e][1,2]oxaborinine-8-carboxylic acid]",> 128 µg/mL,< 0.25 µg/mL,32 to 64 µg/mL,2 to 4 µg/mL,32 to 64 µg/mL,> 128 µg/mL,> 128 µg/mL,D (D represents a potency <10 μM),< 30 µM
"NCCN1CCN(C(=O)N[C@@H](C(=O)N[C@H]2Cc3cccc(C(=O)O)c3OB2O)c2c(F)cc(O)cc2F)C(=O)C1=O (single isomer, unassigned) [Example 111]",> 128 µg/mL,0.5 to 1 µg/mL,8 to 16 µg/mL,8 to 16 µg/mL,8 to 16 µg/mL,> 128 µg/mL,8 to 16 µg/mL,D (D represents a potency <10 μM),< 30 µM
"NCCN1CCN(C(=O)NC(C(=O)N[C@H]2Cc3cccc(C(=O)O)c3OB2O)c2c(F)cc(NS(N)(=O)=O)cc2F)C(=O)C1=O (stereo partly drawn) [Example 177, (3R)-3-(2-(4-(2-aminoethyl)-2,3-dioxopiperazine-1-carboxamido)-2-(2,6-difluoro-4-(sulfamoylamino)phenyl)acetamido)-2-hydroxy-3,4-dihydro-2H-benzo[e][1,2]oxaborinine-8-carboxylic acid]",> 128 µg/mL,2 to 4 µg/mL,> 128 µg/mL,32 to 64 µg/mL,> 128 µg/mL,> 128 µg/mL,> 128 µg/mL,D (D represents a potency <10 μM),30 to 500 µM
"NCCN1CCN(C(=O)N[C@@H](C(=O)N[C@H]2Cc3cccc(C(=O)O)c3OB2O)c2ccc(O)c(F)c2F)C(=O)C1=O (single isomer, unassigned) [Example 170]",> 128 µg/mL,0.5 to 1 µg/mL,8 to 16 µg/mL,2 to 4 µg/mL,8 to 16 µg/mL,32 to 64 µg/mL,32 to 64 µg/mL,D (D represents a potency <10 μM),< 30 µM
"NCCN1CCN(C(=O)N[C@H](C(=O)N[C@H]2Cc3ccc(F)c(C(=O)O)c3OB2O)c2c(F)cc(O)cc2F)C(=O)C1=O (single isomer, unassigned) [Example 128]",> 128 µg/mL,8 to 16 µg/mL,32 to 64 µg/mL,32 to 64 µg/mL,32 to 64 µg/mL,> 128 µg/mL,> 128 µg/mL,C (C represents a potency between 10 and 30 μM),30 to 500 µM
"O=C(O)c1cccc2c1OB(O)[C@@H](NC(=O)C(NC(=O)N1CCNC1=O)c1c(F)cc(O)cc1F)C2 (stereo partly drawn) [Example 156, (3R)-3-(2-(2,6-difluoro-4-hydroxyphenyl)-2-(2-oxoimidazolidine-1-carboxamido)acetamido)-2-hydroxy-3,4-dihydro-2H-benzo[e][1,2]oxaborinine-8-carboxylic acid]",> 128 µg/mL,0.5 to 1 µg/mL,32 to 64 µg/mL,8 to 16 µg/mL,32 to 64 µg/mL,> 128 µg/mL,32 to 64 µg/mL,D (D represents a potency <10 μM),< 30 µM
